What was measured:
[1] = system: LTD4-induced bronchoconstriction; test: Effect on LTD4-induced bronchoconstriction in guinea pigs; format: in vivo
Experimental: Effect on LTD4 -Induced Brochoconstriction in Guinea Pigs
Bronchoconstriction in guinea pigs was measured by the method of Konzett-Rossler[Naunyn-Schmiedeberg's Arch. exp. Path. Pharmak., 195, 71-74(1940)]. The animals were anesthetized with urethane (1.5 g/kg, intraperitoneally) and the trachea was cannulated. The animals were artificially ventilated by means of a respirator (Harvard apparatus rodent respirator) at a rate of 70 strokes/min and a constant volume of 5-7 ml. Inflation pressure was kept constantly at 10 cm H2 O. Changes in overflow of air from a side-arm of the cannula were recorded on Rectigraph-8S via a bronchospasm transducer for 15 min. LTD4 (10 μg/kg) was given into the […] through an indwelling cannula. Each specimen suspended in a 5% gum arabic solution was also given through the same cannula 1 or 24 hrs before the LTD4 administraction.

[2] = system: Immunoglobulin-G1 mediated bronchoconstriction reaction; test: Action on immunoglobulin-G1 mediated bronchoconstriction reaction in guinea pigs; format: in vivo, Hartley guinea pigs; details: Cavia porcellus; 20 mg/kg oral, 1 hour before antigen
Experimental: Action on the Immunoglobulin-G1 Mediated Bronchoconstriction Reaction in Guinea Pigs
In accordance with the method of Orange and Moore (Orange, R. P. and Moore E. G. , J. Immunol., 116, 392-397, 1976), female and male Hartley guinea pigs weighing about 350 g were sensitized by intraperitoneal application of an emulsion (1 ml) composed of egg albumin (1 mg) and Freund's complete adjuvant (produced by Wako Pure-Chemical Industries, Ltd. of Japan). 3 Weeks after the sensitization, a serum antibody level in the sensitized guinea pigs was measured by means of the 3-hours passive cutaneous anaphylaxis (PCA) reaction in guinea pigs. […] The broncoconstriction reaction resulting from the antigen-antibody reaction was measured in accordance with the Konzett-Rossler method (Konzett, H. and Rossler, R., Naunyn-Schmiedeberg'ss Arch. exp. Path. pharmak., 195, 71-74, 1940). The guinea pigs were fixed on the dorsal position under anesthesia with a urethane (1.5 g/kg given intraperitonealy). An incision was made through the trachea, which was connected to an artificial respirator (manufactured by Harvard Co.) through an endotracheal tube, with a side tube of the endotracheal tube being attached to a brochoconstricting transducer (type 7020, manufactured by Ugobasile Co.). While an air volume per ventilation was adjusted to 5 to 7 ml and an air ventilation rate was controlled at 70 times/min., with a load pressure to the lung set at 10 cm H2 O, the overflown air volume was recorded on Rectigraphy-8S (manufactured by Sanei Sokki Inc. of Japan) through a transducer. After 1 mg/kg of gallamine triethiodide was given intravenously to the animals, 1 mg/kg of antigen, egg albumin dissolved in physiological saline, was applied intravenously to induce a brochoconstriction reaction. The bronchconstriction reaction was recorded for the period of time of 15 minutes. A drug was suspended in 5% gum arabic solution, and given orally 1 hour before the application of the antigen. Percent inhibition of the immunoglobuin G1 mediated bronchoconstriction reaction in guinea pigs are shown below in Table 3.

[3] = system: PAF-induced bronchoconstriction; test: Effect on PAF-induced bronchoconstriction in guinea pigs; format: in vivo; details: one hour before PAF
Experimental: Platelet Activating Factor (PAF)-Induced Bronchoconstriction in Guinea Pigs
Experimental procedure in this experiment was the same as that in LTD4 -induced bronchoconstriction shown in Experimental example 7. PAF is an intraveneous dose of 1 μg/kg was used. Each specimen suspended in a 5% gum arabic solution was given orally one hour before the PAF administration.

mice of ICR breed = format: in vivo; details: 1000 mg/kg oral, male ICR mice, 7 days
Text: Acute Toxicity Test in Mice (Acute Toxicity)
1000 Milligrams per kilogram of each set specimen was applied orally to groups of 5 five-weeks old male mice of ICR breed, and a number of dead animals observed for the 7-days period was counted.

[4] = system: PMA-stimulated release of O2^- in guinea pig peritoneal polymorphonuclear leukocytes; test: PMA-stimulated release of O2- in guinea pig peritoneal polymorphonuclear leukocytes (chemiluminescence); format: cell-based
Experimental: Luminol (3-aminophthaloylhydrazine), 10 nmole, and phorbol myristate acetate (PMA), 10 ng, were added to guinea pig peritoneal polymorphonuclear leukocytes (1.5×10^4 cells) suspended in Hanks' balanced salt solution-HEPES buffer (pH 7.4). A total volume of the reaction mixture was 0.1 ml. The chemiluminescence resulted from release of superoxide (O2^-) during 30 sec was measured continuously for 10 min at 37° C. using a chemiluminometer analyzer (Packard Pico-Lite). A peak value of the chemiluminescence was compared as an index of the release of O2^-, and the chemiluminecence inhibitable by superoxide dismutase (300 μg/ml) was measured as 100%. Compound No. 50 was added immediately before the addition of PMA.

[5] = system: lipid peroxides production in rat brain homogenates; test: Inhibitory action on lipid peroxides production in rat brain homogenates (thiobarbituric acid method); format: biochemical, rat (SD); details: n = 4-6
Experimental: Inhibitory Action on Lipid Peroxides Production in Rat Brain Homogenates
The male SD rat brain tissue was used as 5% homogenate in phosphate-buffered solution. After incubation of the homogenate for 1 hour at 37° C., the amount of lipid peroxides produced was determined by the thiobarbituric acid method according to the description of Ohkawa et al. (Analytical Biochemistry, 95: 551, 1979)
Test compounds were used as a solution of dimethylsulfoxide. The inhibitory action on lipid peroxide production was expressed as a % inhibition as compared with the amount of production in the vehicle group. Results

[6] = system: experimental cerebral infarction model of Mongolian gerbils; test: Anti-edema action in an experimental cerebral infarction model of Mongolian gerbil; format: in vivo; details: oral, 1 hour before carotid ligation
Experimental: Anti-Edema Action in an Experimental Cerebral Infarction Model of Mongolian Gerbil
Male Monglian gerbils (8-10 weeks of age) were used. Under light ether anesthesia, the right common carotid artery was ligated for 1 hour to induce experimental cerebral infarction, and then reperfused on removing the ligature. One hour after reperfusion, the animal was guillotined, the brain was excised, and divided into the left and right brain hemispheres. The wet weight of each hemisphere was determined, and then the dry weight was determined after drying for 24 hours at 96° C. The water content (%) of each hemisphere was estimated according to the following equation. [formula] In addition, neurological deficit symptoms were observed during ligation-and-reperfusion periods.
Test drugs were orally administered as a gum arabic suspension 1 hour before the common carotid artery ligation under an unanesthetized condition. Results

CC1=C(C)C(=O)C(C(CCCCCC(=O)O)c2ccc(C)cc2)=C(C)C1=O (stereo not drawn) [Compound No. 93]
% Inhibition of LTD4-induced bronchoconstriction ([1]; 0.313 mg/kg, 1 hr. before LTD4): 73% | % Inhibition of LTD4-induced bronchoconstriction ([1]; 1.25 mg/kg, 1 hr. before LTD4): 83% | % Inhibition of LTD4-induced bronchoconstriction ([1]; 5 mg/kg, 1 hr. before LTD4): 85% | % Inhibition of LTD4-induced bronchoconstriction ([1]; 5 mg/kg, 24 hrs. before LTD4): 53% | inhibition in vivo at 20 mg/kg [2]: 83% | % Inhibition of PAF-induced bronchoconstriction ([3]; 0.08 mg/kg oral): 58% | % Inhibition of PAF-induced bronchoconstriction ([3]; 0.313 mg/kg oral): 87% | % Inhibition of PAF-induced bronchoconstriction ([3]; 1.25 mg/kg oral): 70% | Acute toxicity (number of dead animals/number of animals used) (mice of ICR breed): 0/5

CC1=C(C)C(=O)C(C(CCCCCC(=O)O)c2ccccc2)=C(C)C1=O (stereo not drawn) [Compound No. 50, 7-(3,5,6-trimethyl-1,4-benzoquinon-2-yl)-7-phenylheptanoic acid]
suppression of the release of O2- (in words) ([4]; 0.001-0.1 mM): suppressed the release of O2^- in a concentration-dependent manner | inhibition at 1 µM ([4]; Cavia porcellus, Leukocyte, 0.001 mM): 12% | inhibition at 10 µM ([4]; Cavia porcellus, Leukocyte, 0.01 mM): 56% | inhibition at 100 µM ([4]; Cavia porcellus, Leukocyte, 0.1 mM): 93% | % Inhibition of LTD4-induced bronchoconstriction ([1]; 0.313 mg/kg, 1 hr. before LTD4): 58% | % Inhibition of LTD4-induced bronchoconstriction ([1]; 1.25 mg/kg, 1 hr. before LTD4): 77% | % Inhibition of LTD4-induced bronchoconstriction ([1]; 5 mg/kg, 1 hr. before LTD4): 94% | % Inhibition of LTD4-induced bronchoconstriction ([1]; 5 mg/kg, 24 hrs. before LTD4): 72% | Inhibition of lipid peroxides production ([5]; 10^-5 M): 100 ± 0% | Inhibition of lipid peroxides production ([5]; 10^-6 M): 66.6 ± 12.4% | Inhibition of lipid peroxides production ([5]; 10^-7 M): 16.7 ± 3.2% | Incidence of appearance of neurological deficit symptoms ([6]; control 5/6): 1/6 | Water content, normal side (left) ([6]; control 80.1 ± 0.3): 79.8 ± 1.0% | Water content, infarct side (right) ([6]; control 81.3 ± 0.9): 80.3 ± 1.0% | inhibition in vivo at 20 mg/kg [2]: 76% | % Inhibition of PAF-induced bronchoconstriction ([3]; 0.313 mg/kg oral): 66% | % Inhibition of PAF-induced bronchoconstriction ([3]; 1.25 mg/kg oral): 94% | % Inhibition of PAF-induced bronchoconstriction ([3]; 5 mg/kg oral): 85%

Reference: US5180742A, “Quinone derivatives, their production and use” (Takeda Chemical Industries, Ltd., priority 1984, dated 1993)
